# Measured values from paper PMC5125089 (Lung cancer (Amsterdam, Netherlands), 2015).
# Columns and labels:
# histone H4 acetylation = assay: Histone H4 acetylation status in PBMCs; assay type: in vivo, patients; settings: for normalized H4 acetylation values, mean increase: P < 0.01
# [1] = phase 1 monotherapy trial; cited from earlier work
# lung cancer = settings: romidepsin monotherapy, previously treated lung cancer; cited from earlier work
# histone H3 acetylation = assay: Histone H3 acetylation status in PBMCs; assay type: in vivo, patients; settings: for normalized H3 acetylation values, mean increase: P < 0.01
# NSCLC cell lines = settings: cited from earlier work
# EGFR pathway components = EGFR pathway components in skin biopsies; assay type: in vivo, patients; settings: romidepsin monotherapy
# [2] = both 8 mg/m^2 and 10 mg/m^2 dose levels, P < 0.001
smiles,measurement,setting,value
C/C=C1\NC(=O)[C@H]2CSSCC/C=C/[C@H](CC(=O)N[C@H](C(C)C)C(=O)N2)OC(=O)[C@H](C(C)C)NC1=O [romidepsin],"normalized H4 acetylation values, mean increase",histone H4 acetylation; 8 mg/m^2 cohort,3.20 ± 2.40
same,"normalized H4 acetylation values, mean increase",histone H4 acetylation; 10 mg/m^2 cohort,2.26 ± 0.47
same,effect on H4 histone acetylation,histone H4 acetylation; [2],concomitant increase
same,dose-limiting toxicities,[1],grade 3 thrombocytopenia and fatigue
same,patients who achieved stable disease,lung cancer,9 of 18
same,"normalized H3 acetylation values, mean increase",histone H3 acetylation; 8 mg/m^2 cohort,2.10 ± 0.71
same,"normalized H3 acetylation values, mean increase",histone H3 acetylation; 10 mg/m^2 cohort,2.18 ± 1.09
same,effect on H3 histone acetylation,histone H3 acetylation; [2],concomitant increase
same,maximum tolerated dose of romidepsin,"in combination with erlotinib 150 mg orally daily, Days 1, 8, and 15 every 28 days, IV, with multi-drug antiemetic prophylaxis",8 mg/m^2
same,IC50 against NSCLC cell lines in vitro,NSCLC cell lines,2.25 ng/mL
same,"effect on expression of EGFR, MAPK, or phospho-MAPK",EGFR pathway components,no discernible effect
same,effect on expression of phosphorylated EGFR,"EGFR pathway components; day 3 pre-erlotinib, P = 0.09",trend toward decreased expression
C#Cc1cccc(Nc2ncnc3cc(OCCOC)c(OCCOC)cc23)c1 [erlotinib],"Acneiform Rash, Possible Relationship to Erlotinib","human, in vivo",Y (7/7)
same,"Acute kidney injury, Possible Relationship to Erlotinib","human, in vivo",Y (1/1)
same,"Anorexia, Possible Relationship to Erlotinib","human, in vivo",Y (9/9)
same,"Diarrhea, Possible Relationship to Erlotinib","human, in vivo",Y (9/11)
same,"Dry Skin, Possible Relationship to Erlotinib","human, in vivo",Y (2/2)
same,"Fatigue, Possible Relationship to Erlotinib","human, in vivo",Y (9/14)
same,"Mouth Blister, Possible Relationship to Erlotinib","human, in vivo",Y (4/4)
same,"Nausea, Possible Relationship to Erlotinib","human, in vivo",Y (4/14)
same,"Vomiting, Possible Relationship to Erlotinib","human, in vivo",Y (5/14)
same,"Weight Loss, Possible Relationship to Erlotinib","human, in vivo",Y (2/3)
same,"↑ Glucose, Possible Relationship to Erlotinib","human, in vivo",Y (1/3)
same,"↓ Hgb/Anemia, Possible Relationship to Erlotinib","human, in vivo",Y (2/5)
same,"Dyspepsia, Possible Relationship to Erlotinib",in vivo,N
same,"Sinus tachycardia, Possible Relationship to Erlotinib",in vivo,N
same,"↓ Potassium, Possible Relationship to Erlotinib",in vivo,N
